ChEMBL document CHEMBL1201862, “PubChem BioAssay data set” (2004)
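Test compounds were applied to cells in 96-well plates for 48 hours at 5 doses. GI50 = concentration required for 50% inhibition of growth.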 Active and inactive are the calls of the source. No stated cut-off is given here; in the data, active = GI50 up to about 1.1 µM and inactive = higher.

Key:
Test in all cases: NCI anticancer screen, dose series, 48 h
A549 = test system: A549
ACHN = test system: ACHN
DU-145 = test system: DU-145
HOP-62 = test system: HOP-62
K562 = test system: K562
MDA-MB-435 = test system: MDA-MB-435
Malme-3M = test system: Malme-3M
NCI-H460 = test system: NCI-H460
OVCAR-3 = test system: OVCAR-3
OVCAR-8 = test system: OVCAR-8
RPMI-8226 = test system: RPMI-8226
SF-268 = test system: SF-268
SF-295 = test system: SF-295
SK-MEL-28 = test system: SK-MEL-28
SK-MEL-2 = test system: SK-MEL-2
SK-MEL-5 = test system: SK-MEL-5
TK-10 = test system: TK-10
U-251 = test system: U-251
UACC-257 = test system: UACC-257
UACC-62 = test system: UACC-62

SMILES	GI50 (A549)	GI50 (ACHN)	GI50 (DU-145)	GI50 (HOP-62)	GI50 (K562)	GI50 (MDA-MB-435)	GI50 (Malme-3M)	GI50 (NCI-H460)	GI50 (OVCAR-3)	GI50 (OVCAR-8)	GI50 (RPMI-8226)	GI50 (SF-268)	GI50 (SF-295)	GI50 (SK-MEL-28)	GI50 (SK-MEL-2)	GI50 (SK-MEL-5)	GI50 (TK-10)	GI50 (U-251)	GI50 (UACC-257)	GI50 (UACC-62)
O=C(Nc1ccccc1)c1cc(S(=O)(=O)NC2=Nc3ccc(Cl)cc3C(c3ccccc3)N2)c(SSc2cc(Cl)c(C(=O)Nc3ccccc3)cc2S(=O)(=O)NC2=Nc3ccc(Cl)cc3C(c3ccccc3)N2)cc1Cl (stereo not given)	> 100 µM (inactive)	> 100 µM (inactive)	> 100 µM (inactive)	> 80.5 µM (inactive)	38 µM (inactive)	> 100 µM (inactive)	> 100 µM (inactive)	> 100 µM (inactive)	> 100 µM (inactive)	> 100 µM (inactive)	55.3 µM (inactive)	> 100 µM (inactive)	> 100 µM (inactive)	> 100 µM (inactive)	> 100 µM (inactive)	> 100 µM (inactive)	> 100 µM (inactive)	> 100 µM (inactive)	> 100 µM (inactive)	> 89.9 µM (inactive)
C=C(CBr)CCCOCc1ccccc1	38.4 µM (inactive)	14.1 µM (inactive)	39.1 µM (inactive)	22.2 µM (inactive)	40.3 µM (inactive)	28.4 µM (inactive)	20.7 µM (inactive)	18.1 µM (inactive)	19.1 µM (inactive)	17 µM (inactive)	29.7 µM (inactive)	15.8 µM (inactive)	36.1 µM (inactive)	40.9 µM (inactive)	18.6 µM (inactive)	20.5 µM (inactive)	16.7 µM (inactive)	34.7 µM (inactive)	33.9 µM (inactive)	18.7 µM (inactive)
CC(C)(C)c1ccc(O)c(CN(Cc2c(O)ccc3ccccc23)C2CCCCC2)c1	18.5 µM (inactive)	18.5 µM (inactive)	23.8 µM (inactive)	17.6 µM (inactive)	16.9 µM (inactive)	19.2 µM (inactive)	17.4 µM (inactive)	15.8 µM (inactive)	17.4 µM (inactive)	15.2 µM (inactive)	26.6 µM (inactive)	16.1 µM (inactive)	18.3 µM (inactive)	20.5 µM (inactive)	16.7 µM (inactive)	16.5 µM (inactive)	15.8 µM (inactive)	16 µM (inactive)	15.7 µM (inactive)	15.6 µM (inactive)
Cc1cc(Cl)ccc1Nc1sc(C(=O)c2cc3cc(Cl)ccc3o2)c(N)c1C#N	5.98 µM (inactive)	15.4 µM (inactive)	18.8 µM (inactive)	4.86 µM (inactive)	18.7 µM (inactive)	8.71 µM (inactive)	80.5 µM (inactive)	5.96 µM (inactive)	12.5 µM (inactive)	11.4 µM (inactive)	2.27 µM (inactive)	5.3 µM (inactive)	4.76 µM (inactive)	> 28.1 µM (inactive)	> 44.9 µM (inactive)	3.99 µM (inactive)	> 35.8 µM (inactive)	4.14 µM (inactive)	> 61.7 µM (inactive)	6 µM (inactive)
COC(=O)c1ccccc1C1CN=NC12Cc1ccc(C)cc1C2=O (stereo not given)	47.6 µM (inactive)	> 100 µM (inactive)	> 100 µM (inactive)	> 100 µM (inactive)	46.6 µM (inactive)	33.3 µM (inactive)	86.5 µM (inactive)	> 100 µM (inactive)	38.6 µM (inactive)	> 100 µM (inactive)	49.7 µM (inactive)	> 100 µM (inactive)	46.8 µM (inactive)	67.8 µM (inactive)	28.5 µM (inactive)	38.1 µM (inactive)	> 100 µM (inactive)	41.6 µM (inactive)	93.1 µM (inactive)	68.7 µM (inactive)
Nc1nc(Cl)c(N)c(NCC2(CO)CCCC2)n1	> 100 µM (inactive)	> 100 µM (inactive)	> 100 µM (inactive)	88.5 µM (inactive)	77.1 µM (inactive)	80 µM (inactive)	> 100 µM (inactive)	> 100 µM (inactive)	62.1 µM (inactive)	> 100 µM (inactive)	> 100 µM (inactive)	> 100 µM (inactive)	86.7 µM (inactive)	> 100 µM (inactive)	> 100 µM (inactive)	30.8 µM (inactive)	> 100 µM (inactive)	> 100 µM (inactive)	71.6 µM (inactive)	1.83 µM (inactive)
O=C(/C=C/c1ccc(O)c(O)c1)OCCOC(=O)/C=C/c1ccc(O)c(O)c1	32.1 µM (inactive)	31.3 µM (inactive)	24.7 µM (inactive)	21.5 µM (inactive)	24.8 µM (inactive)	31.3 µM (inactive)	42.1 µM (inactive)	37.2 µM (inactive)	19.3 µM (inactive)	32.2 µM (inactive)	36.2 µM (inactive)	27.7 µM (inactive)	21.5 µM (inactive)	36.4 µM (inactive)	22.1 µM (inactive)	18.2 µM (inactive)	41.5 µM (inactive)	25.3 µM (inactive)	17.9 µM (inactive)	18.7 µM (inactive)
C=CCn1c(=O)ccn(/C(=C/C(=O)OCC)C(=O)OCC)c1=O	17.5 µM (inactive)	3.72 µM (inactive)	21.7 µM (inactive)	20.9 µM (inactive)	3.08 µM (inactive)	12.8 µM (inactive)	11 µM (inactive)	16.1 µM (inactive)	5.66 µM (inactive)	15.6 µM (inactive)	7.94 µM (inactive)	19.7 µM (inactive)	> 52.4 µM (inactive)	15.2 µM (inactive)	15.7 µM (inactive)	15.1 µM (inactive)	11.9 µM (inactive)	14.4 µM (inactive)	15.2 µM (inactive)	15.7 µM (inactive)
O=S(=O)(c1ccccc1)n1c2ccc(Br)cc2c2nc3ccccc3nc21	> 100 µM (inactive)	> 100 µM (inactive)	> 100 µM (inactive)	> 100 µM (inactive)	> 100 µM (inactive)	> 100 µM (inactive)	> 100 µM (inactive)	> 100 µM (inactive)	> 100 µM (inactive)	> 100 µM (inactive)	> 100 µM (inactive)	> 100 µM (inactive)	> 100 µM (inactive)	> 100 µM (inactive)	> 100 µM (inactive)	> 100 µM (inactive)	> 100 µM (inactive)	> 100 µM (inactive)	> 100 µM (inactive)	> 100 µM (inactive)
N#CC1=C(N2CCCC2)NC(=O)CC1=O	> 100 µM (inactive)	> 100 µM (inactive)	> 100 µM (inactive)	> 100 µM (inactive)	> 100 µM (inactive)	> 100 µM (inactive)	> 100 µM (inactive)	> 100 µM (inactive)	> 100 µM (inactive)	> 100 µM (inactive)	> 100 µM (inactive)	> 100 µM (inactive)	> 100 µM (inactive)	> 100 µM (inactive)	> 100 µM (inactive)	> 100 µM (inactive)	> 100 µM (inactive)	> 100 µM (inactive)	> 100 µM (inactive)	> 100 µM (inactive)
COc1ccc(N/N=C2\CCOc3ccc(C)cc3C2=O)cc1	21.3 µM (inactive)	12.4 µM (inactive)	51.3 µM (inactive)	39.2 µM (inactive)	4.43 µM (inactive)	3.18 µM (inactive)	11.1 µM (inactive)	13.7 µM (inactive)	43.2 µM (inactive)	31.8 µM (inactive)	25.5 µM (inactive)	35.5 µM (inactive)	10.3 µM (inactive)	32.3 µM (inactive)	16.8 µM (inactive)	19.1 µM (inactive)	55.6 µM (inactive)	20.9 µM (inactive)	14.9 µM (inactive)	6.81 µM (inactive)
CC1=C(C)CC2C(=O)N(c3cc(C(C)(C)C)ccc3C(C)(C)C)C(=O)C2C1 (stereo not given)	69.5 µM (inactive)	5.38 µM (inactive)	> 100 µM (inactive)	26.2 µM (inactive)	> 100 µM (inactive)	> 100 µM (inactive)	4.55 µM (inactive)	> 100 µM (inactive)	66.2 µM (inactive)	> 100 µM (inactive)	> 100 µM (inactive)	7.91 µM (inactive)	48.2 µM (inactive)	> 100 µM (inactive)	> 100 µM (inactive)	> 100 µM (inactive)	66.1 µM (inactive)	47.1 µM (inactive)	> 100 µM (inactive)	14.5 µM (inactive)
CCOC(=O)Nn1c(CC#N)nnc1Cc1ccccc1	> 100 µM (inactive)	> 100 µM (inactive)	> 100 µM (inactive)	> 100 µM (inactive)	> 100 µM (inactive)	> 100 µM (inactive)	> 100 µM (inactive)	> 100 µM (inactive)	> 100 µM (inactive)	> 100 µM (inactive)	> 100 µM (inactive)	> 100 µM (inactive)	> 100 µM (inactive)	> 100 µM (inactive)	> 100 µM (inactive)	> 100 µM (inactive)	> 100 µM (inactive)	> 100 µM (inactive)	> 100 µM (inactive)	> 100 µM (inactive)
BrC(Br)=C1C(=C(Br)Br)C(Br)C1Br (stereo not given)	0.796 µM (active)	0.152 µM (active)	0.106 µM (active)	1.02 µM (active)	0.158 µM (active)	0.927 µM (active)	0.418 µM (active)	0.114 µM (active)	0.794 µM (active)	0.55 µM (active)	0.158 µM (active)	0.274 µM (active)	0.778 µM (active)	1.1 µM (active)	0.789 µM (active)	0.826 µM (active)	0.682 µM (active)	0.65 µM (active)	1.75 µM (inactive)	0.429 µM (active)
